Experimental data reported in patent US20260152799A1, “TUMOUR STRATIFICATION FOR RESPONSIVENESS TO AN IMMUNE CHECKPOINT INHIBITOR” (MEMORIAL SLOAN-KETTERING CANCER CENTER, priority 2022, published 2026).

Legend:
[1] = molecular target: T1, PD-L1 (Homo sapiens, UniProt Q9NZQ7); settings: in vitro; cited from earlier work
[2] = molecular target: T1, PD-L1; settings: xenograft model, T-cell dependent mechanism; cited from earlier work
[3] = system: metastatic melanoma; experiment: Riaz et al clinical cohort: response to nivolumab by tumour mtDNA mutation status; assay type: in vivo, humans
Experimental: A—Stratification of a metastatic melanoma patient cohort by mtDNA status. […] P-values were determined using one-way ANOVA test with Sidak multiple comparisons test (C,F), one-tailed student's t-test (I) or chi-squared test (H) were applied. Error bars indicate SD. Measure of centrality is mean.
The inventors then assessed whether this would be associated with clinical outcome.
Aligned reads for ChrM for patients' tumour and normal samples were acquired and processed according to previously described pipelines which are now publicly available (see e.g. Gorelick et al., Nature Metabolism 2021). Mutation calls and calculated heteroplasmy were used to assign patients to mtDNA wildtype, <50% VAF or >50% VAF groups.

[4] = system: metastatic melanoma; settings: of the 15 responders; cited from earlier work

T1 sequence (Q9NZQ7 19-290): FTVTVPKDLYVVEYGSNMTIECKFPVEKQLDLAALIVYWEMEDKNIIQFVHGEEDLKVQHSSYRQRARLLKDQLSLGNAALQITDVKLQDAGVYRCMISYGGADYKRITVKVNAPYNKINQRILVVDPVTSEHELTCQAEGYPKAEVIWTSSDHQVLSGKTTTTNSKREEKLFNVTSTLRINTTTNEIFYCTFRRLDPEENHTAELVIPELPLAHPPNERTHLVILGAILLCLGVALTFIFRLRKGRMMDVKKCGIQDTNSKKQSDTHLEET

Substance | Effect on PD-L1-mediated suppression of human T-cell activation [1] | Effect on tumour growth [2] | Tumours responding to nivolumab ([3]; <50% VAF tumours) | Tumours responding to nivolumab ([3]; >50% VAF tumours) | Complete responders categorised as >50% VAF ([3]; out of the 3 complete responders) | Complete responses [4] | Partial responses [4]
MEDI4736: anti-PD-L1 antibody selective for PD-L1 that blocks binding of PD-L1 to PD-1 and CD80 | relieve PD-L1-mediated suppression of human T-cell activation | inhibit tumour growth |  |  |  |  | 
nivolumab |  |  | 17% | 40% | 2 | 3 | 12
